Assay results taken from US8058475B2, “Substituted cyclohexylmethyl compounds” (Gruenenthal GmbH, priority 2005, dated 2011).
Counter-ions that a name gives are not always drawn. Like-named read-outs stand apart in the source and are kept apart here. Blank lines part the entries; values can stand above or below the compound they belong to.

Tests used:
mouse = experiment: In vivo studies of analgesia: tail-flick test in the mouse; conditions: iv; for % maximum possible antinociceptive effect at 10 mg/kg: dose 10 mg/kg (i.v.); for % maximum possible antinociceptive effect at 21.5 mg/kg: dose 21.5 mg/kg (i.v.)
Excerpt: In vivo Studies of Analgesia: Tail-flick Test in the Mouse
The mice were each placed individually into a test cage and the base of the tail was exposed to the focused heat ray of an electric lamp (tail-flick type 50/08/1.bc, Labtec, Dr. Hess). The intensity of the lamp was adjusted so that the time from switching on of the lamp to the sudden twitching away of the tail (latency of pain) in untreated mice was from 3 to 5 seconds. Before administration of the solutions comprising the compound according to the invention, or of the particular comparison solutions, the mice were pre-tested twice in the course of five minutes and the mean of these measurements was calculated as the pre-test mean.
The solutions of the compound of the general formula I according to the invention and the comparison solutions were then administered intravenously.
Pain measurement was carried out in each case 10, 20, 40 and 60 minutes following the intravenous administration. The analgesic activity was determined as the increase in the latency of pain (% of the maximum possible antinociceptive effect) according to the following formula: [(T1−T0)/(T2−T0)]×100 where time T0 is the latency before administration, time T1 is the latency after administration of the active ingredient combination and time T2 is the maximum exposure time (12 seconds).
The in-depth study of analgesic activity was carried out in the tail-flick test in the mouse, as described above.

Serotonin (5HT) reuptake = target: T1, Serotonin (5HT) reuptake (Rattus norvegicus, UniProt P31652); experiment: Serotonin (5HT) reuptake inhibition in rat brain synaptosomes (P2 fraction); type: biochemical; conditions: for inhibition at 10 µM: read-out: Serotonin reuptake, % inhibition [10 μM]
T1 construct: synaptosomes are freshly isolated from areas of rat brain; from tissue; host or cells: rat brain synaptosomes (P2 fraction)
How it was run: (§1)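 Freshly isolated rat brain synaptosomes (P2 fraction, Gray–Whittaker method) used for uptake; for NA uptake the particles came from hypothalamus of male rats.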

[1] = target: T2, Noradrenaline (NA) reuptake (Rattus norvegicus, UniProt Q63380); experiment: Noradrenaline (NA) reuptake inhibition in rat brain synaptosomes (hypothalamus, P2 fraction); type: biochemical
T2 construct: synaptosomes are freshly isolated from areas of rat brain; from tissue; host or cells: rat hypothalamus synaptosomes (P2 fraction)
How it was run: as §1

human μ-opiate receptor = human μ-opiate receptor (Homo sapiens, UniProt P35372); experiment: Affinity for the human μ-opiate receptor ([3H]-naloxone displacement, SPA, CHO-K1 membrane preparation); type: binding; conditions: for inhibition at 1 µM: read-out: μ-Opioid receptor, % inhibition [1 μM]; for Ki: read-out: μ-Opioid receptor, Ki
[2] = read-out: NA reuptake, % inhibition [10 μM]
[3] = 1 μM test substance, inhibition of specific [3H]-naloxone binding
[4] = read-out: Na reuptake, % inhibition [10 μM]

T1 sequence (P31652 whole entry): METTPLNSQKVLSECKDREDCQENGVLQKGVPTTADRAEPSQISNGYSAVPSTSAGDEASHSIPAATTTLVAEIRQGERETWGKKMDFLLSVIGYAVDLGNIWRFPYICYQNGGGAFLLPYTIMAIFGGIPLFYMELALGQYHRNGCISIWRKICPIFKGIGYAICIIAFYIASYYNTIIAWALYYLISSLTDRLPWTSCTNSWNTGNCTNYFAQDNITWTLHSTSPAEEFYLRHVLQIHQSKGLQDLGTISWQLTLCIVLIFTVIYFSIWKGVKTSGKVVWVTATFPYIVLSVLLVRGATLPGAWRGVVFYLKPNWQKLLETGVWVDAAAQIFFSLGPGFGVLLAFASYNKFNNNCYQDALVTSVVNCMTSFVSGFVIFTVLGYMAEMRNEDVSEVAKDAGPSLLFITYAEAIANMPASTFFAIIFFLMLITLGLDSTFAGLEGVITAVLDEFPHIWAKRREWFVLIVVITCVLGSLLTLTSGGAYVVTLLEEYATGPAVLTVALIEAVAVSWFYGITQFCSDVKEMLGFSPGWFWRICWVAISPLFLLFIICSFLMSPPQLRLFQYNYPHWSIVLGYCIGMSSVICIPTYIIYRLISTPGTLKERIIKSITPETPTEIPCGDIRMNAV
Sequence of human μ-opiate receptor (P35372 whole entry): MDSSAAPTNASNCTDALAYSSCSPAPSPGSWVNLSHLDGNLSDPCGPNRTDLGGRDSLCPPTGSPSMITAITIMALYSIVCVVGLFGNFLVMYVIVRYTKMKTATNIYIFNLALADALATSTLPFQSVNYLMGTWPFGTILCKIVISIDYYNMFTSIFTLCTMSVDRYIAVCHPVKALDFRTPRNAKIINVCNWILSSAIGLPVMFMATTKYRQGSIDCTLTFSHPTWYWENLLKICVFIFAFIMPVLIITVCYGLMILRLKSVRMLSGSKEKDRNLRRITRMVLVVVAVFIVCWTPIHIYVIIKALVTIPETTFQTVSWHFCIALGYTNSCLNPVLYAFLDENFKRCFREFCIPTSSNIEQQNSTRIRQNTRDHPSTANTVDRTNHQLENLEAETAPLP
T2 sequence (Q63380 1-617): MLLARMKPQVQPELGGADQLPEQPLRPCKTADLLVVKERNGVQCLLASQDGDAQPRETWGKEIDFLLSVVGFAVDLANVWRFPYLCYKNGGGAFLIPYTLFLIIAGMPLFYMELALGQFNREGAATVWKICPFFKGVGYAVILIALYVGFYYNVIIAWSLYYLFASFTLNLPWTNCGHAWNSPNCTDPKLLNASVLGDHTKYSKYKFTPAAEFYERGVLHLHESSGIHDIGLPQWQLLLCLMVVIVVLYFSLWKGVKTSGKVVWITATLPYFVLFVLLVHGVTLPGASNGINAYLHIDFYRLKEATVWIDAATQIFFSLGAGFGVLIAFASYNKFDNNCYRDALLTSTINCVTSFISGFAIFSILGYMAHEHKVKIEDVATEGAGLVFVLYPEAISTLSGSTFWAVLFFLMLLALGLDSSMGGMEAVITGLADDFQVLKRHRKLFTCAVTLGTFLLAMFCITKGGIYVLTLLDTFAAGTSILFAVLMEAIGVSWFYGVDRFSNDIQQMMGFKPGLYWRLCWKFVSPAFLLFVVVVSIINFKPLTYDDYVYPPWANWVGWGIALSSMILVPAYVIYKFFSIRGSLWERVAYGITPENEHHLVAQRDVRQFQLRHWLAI

melting point: 110 to 115 °C
SMILES: CN(C)C(c1ccccc1)C1CCC(=NO)CC1 (stereo not drawn)

melting point: 118 to 121 °C
SMILES: CN(C)C(c1cccs1)C1CCC(=NO)CC1 (stereo not drawn)

SMILES: CN(C)C(c1ccccc1)C1CCC(NC(=O)Nc2ccccc2)CC1.Cl (stereo not drawn) [compound 78, 1-(4-((dimethylamino)(phenyl)methyl)cyclohexyl)-3-phenylurea hydrochloride]
ED50 (mouse; head prints (4.64-21.5)): 8.94 mg/kg | Ki (Serotonin (5HT) reuptake): 160 nM | inhibition at 10 µM (Serotonin (5HT) reuptake): 87% | Ki [1]: 290 nM | inhibition at 10 µM [1, 2]: 98% | inhibition at 1 µM (human μ-opiate receptor; [3]): 91% | Ki (human μ-opiate receptor): 54 nM

SMILES: CN(C)C(c1ccccc1)C1CCC(NC(=O)NCc2ccccc2)CC1 (stereo not drawn) [compound 79, 1-benzyl-3-(4-((dimethylamino)(phenyl)methyl)cyclohexyl)urea]
% maximum possible antinociceptive effect at 10 mg/kg (mouse; read-out: Activity % MPE): 76% | Ki (Serotonin (5HT) reuptake): 91 nM | inhibition at 10 µM (Serotonin (5HT) reuptake): 97% | Ki [1]: 120 nM | inhibition at 10 µM [1, 2]: 96% | inhibition at 1 µM (human μ-opiate receptor; [3]): 103% | Ki (human μ-opiate receptor): 8.3 nM

SMILES: CN(C)C(c1ccccc1)C1CCC(NC(=O)NC2CCCCC2)CC1 (stereo not drawn) [compound 80, 1-cyclohexyl-3-(4-((dimethylamino)(phenyl)methyl)cyclohexyl)urea]
% maximum possible antinociceptive effect at 10 mg/kg (mouse; read-out: Activity % MPE): 59% | Ki (Serotonin (5HT) reuptake): 250 nM | inhibition at 10 µM (Serotonin (5HT) reuptake): 97% | Ki [1]: 490 nM | inhibition at 10 µM [1, 2]: 97% | inhibition at 1 µM (human μ-opiate receptor; [3]): 95% | Ki (human μ-opiate receptor): 20 nM

SMILES: CN(C)C(c1ccccc1)C1CCC(NCc2ccccc2)CC1 (stereo not drawn) [compound 86, N-benzyl-4-((dimethylamino)(phenyl)methyl)cyclohexanamine hydrochloride]
% maximum possible antinociceptive effect at 21.5 mg/kg (mouse; read-out: Activity % MPE): 100% | inhibition at 10 µM (Serotonin (5HT) reuptake): 88% | inhibition at 10 µM [1, 2]: 95% | inhibition at 1 µM (human μ-opiate receptor; [3]): 98% | Ki (human μ-opiate receptor): 3.8 nM

SMILES: CN(C)C(c1ccccc1)C1CCC(NCCCCc2ccccc2)CC1 (stereo not drawn) [compound 87, 4-((dimethylamino)(phenyl)methyl)-N-(4-phenylbutyl)cyclohexanamine hydrochloride]
% maximum possible antinociceptive effect at 10 mg/kg (mouse; read-out: Activity % MPE): 39% | inhibition at 10 µM (Serotonin (5HT) reuptake): 95% | inhibition at 10 µM [1, 2]: 106% | inhibition at 1 µM (human μ-opiate receptor; [3]): 85% | Ki (human μ-opiate receptor): 3.7 nM

SMILES: CC(Cc1c[nH]c2ccccc12)NC1CCC(C(c2ccccc2)N(C)C)CC1 (stereo not drawn) [compound 88, N-(1-(1H-indol-3-yl)propan-2-yl)-4-((dimethylamino)(phenyl)methyl)-cyclohexanamine hydrochloride]
% maximum possible antinociceptive effect at 21.5 mg/kg (mouse; read-out: Activity % MPE): 90% | inhibition at 10 µM (Serotonin (5HT) reuptake): 88% | inhibition at 10 µM [1, 2]: 84% | inhibition at 1 µM (human μ-opiate receptor; [3]): 99% | Ki (human μ-opiate receptor): 2.4 nM

SMILES: CN(C)C(c1ccccc1)C1CCC(NCc2ccc(F)cc2)CC1 (stereo not drawn) [compound 91, 4-((dimethylamino)(phenyl)methyl)-N-(4-fluorobenzyl)cyclohexanamine hydrochloride]
% maximum possible antinociceptive effect at 21.5 mg/kg (mouse; read-out: Activity % MPE): 90% | inhibition at 10 µM (Serotonin (5HT) reuptake): 76% | inhibition at 10 µM [1, 2]: 93% | inhibition at 1 µM (human μ-opiate receptor; [3]): 90% | Ki (human μ-opiate receptor): 8.1 nM

SMILES: CC(=O)N(CCCc1ccccc1)C1CCC(C(c2ccccc2)N(C)C)CC1 (stereo not drawn) [compound 95, N-(4-((dimethylamino)(phenyl)methyl)cyclohexyl)-N-(3-phenylpropyl)acetamide hydrochloride]
% maximum possible antinociceptive effect at 1 mg/kg (mouse; dose 1 mg/kg (i.v.), read-out: Activity % MPE): 100% | inhibition at 10 µM (Serotonin (5HT) reuptake): 66% | inhibition at 10 µM [1, 4]: 80% | inhibition at 1 µM (human μ-opiate receptor): 95% | Ki (human μ-opiate receptor): 2.5 nM

SMILES: CC(=O)N(CCCCc1ccccc1)C1CCC(C(c2ccccc2)N(C)C)CC1 (stereo not drawn) [compound 98, N-(4-((dimethylamino)(phenyl)methyl)cyclohexyl)-N-(4-phenylbutyl)-acetamide hydrochloride]
% maximum possible antinociceptive effect at 10 mg/kg (mouse; read-out: Activity % MPE): 100% | Ki (Serotonin (5HT) reuptake): 630 nM | inhibition at 10 µM (Serotonin (5HT) reuptake): 74% | Ki [1]: 700 nM | inhibition at 10 µM [1, 4]: 95% | inhibition at 1 µM (human μ-opiate receptor): 104%

SMILES: CCCC(=O)N(Cc1ccccc1)C1CCC(C(c2ccccc2)N(C)C)CC1 (stereo not drawn) [compound 102, N-benzyl-N-(4-((dimethylamino)(phenyl)methyl)cyclohexyl)butyramide hydrochloride]
% maximum possible antinociceptive effect at 10 mg/kg (mouse; read-out: Activity % MPE): 82% | Ki (Serotonin (5HT) reuptake): 450 nM | inhibition at 10 µM (Serotonin (5HT) reuptake): 85% | Ki [1]: 130 nM | inhibition at 10 µM [1, 4]: 92% | inhibition at 1 µM (human μ-opiate receptor): 94% | Ki (human μ-opiate receptor): 1.5 nM

SMILES: CN(C)C(c1ccccc1)C1CCC(O)(Cc2ccc(F)cc2)CC1 (stereo not drawn) [compound 148, 4-((dimethylamino)(phenyl)methyl)-1-(4-fluorobenzyl)cyclohexanol hydrochloride]
% maximum possible antinociceptive effect at 10 mg/kg (mouse; read-out: Activity % MPE): 40% | Ki (Serotonin (5HT) reuptake): 370 nM | inhibition at 10 µM (Serotonin (5HT) reuptake): 90% | inhibition at 10 µM [1, 2]: 97% | inhibition at 1 µM (human μ-opiate receptor; [3]): 91%
